In ChEMBL document CHEMBL1201862, “PubChem BioAssay data set” (2004):
Activity calls are given as the source filed them.

What was measured:
Aminopeptidase N = molecular target: T1, Aminopeptidase N (Plasmodium falciparum FcB1/Columbia, UniProt O96935); experiment: malaria alanyl aminopeptidase activity blockers – biochemical, fluorogenic H-Leu-NHMec substrate, 1536-well (AID 1445); set-up: species or system Plasmodium falciparum 3D7, 3D7
T1 sequence (O96935 whole entry): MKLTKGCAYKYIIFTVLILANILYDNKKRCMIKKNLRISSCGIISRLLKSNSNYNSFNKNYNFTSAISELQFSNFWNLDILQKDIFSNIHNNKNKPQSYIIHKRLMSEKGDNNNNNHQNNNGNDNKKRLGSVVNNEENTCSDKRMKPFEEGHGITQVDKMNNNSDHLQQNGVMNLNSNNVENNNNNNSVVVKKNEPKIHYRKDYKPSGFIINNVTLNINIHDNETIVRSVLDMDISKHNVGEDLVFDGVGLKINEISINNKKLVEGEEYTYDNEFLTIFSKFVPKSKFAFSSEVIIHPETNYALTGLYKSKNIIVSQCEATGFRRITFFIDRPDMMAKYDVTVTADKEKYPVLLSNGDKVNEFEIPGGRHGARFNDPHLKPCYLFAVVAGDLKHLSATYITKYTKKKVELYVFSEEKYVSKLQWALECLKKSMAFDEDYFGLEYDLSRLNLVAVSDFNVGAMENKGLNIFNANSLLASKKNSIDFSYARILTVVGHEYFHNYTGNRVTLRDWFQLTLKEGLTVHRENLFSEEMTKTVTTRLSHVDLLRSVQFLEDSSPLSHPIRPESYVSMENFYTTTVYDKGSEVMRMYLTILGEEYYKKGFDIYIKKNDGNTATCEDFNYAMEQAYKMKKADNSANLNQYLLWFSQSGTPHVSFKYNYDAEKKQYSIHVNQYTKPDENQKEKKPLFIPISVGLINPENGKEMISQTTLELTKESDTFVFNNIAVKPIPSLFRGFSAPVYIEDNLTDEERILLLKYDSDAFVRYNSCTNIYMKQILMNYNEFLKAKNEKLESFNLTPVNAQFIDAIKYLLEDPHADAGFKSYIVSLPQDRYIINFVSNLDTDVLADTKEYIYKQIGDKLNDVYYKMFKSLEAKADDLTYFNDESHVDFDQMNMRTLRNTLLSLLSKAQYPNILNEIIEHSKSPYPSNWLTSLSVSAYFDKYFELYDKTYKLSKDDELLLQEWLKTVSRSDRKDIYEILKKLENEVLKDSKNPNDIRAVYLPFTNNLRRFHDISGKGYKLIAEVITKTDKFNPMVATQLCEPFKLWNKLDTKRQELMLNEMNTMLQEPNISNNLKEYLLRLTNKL

[1] = molecular target: T2, Heat shock factor protein 1 (Mus musculus, UniProt P38532); experiment: enhancement of HSF1-driven luciferase signal – cell-based, NIH3T3, luminescence, dose retest, confirmation (AID 435004); format: functional;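 further: stress induced by proteasome inhibitor MG132 added 30 min after compound; luciferase reporter driven by HSF1 response element in NIH3T3 cells; actives raise luminescence as potentiators of the MG132 stress response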
T2 sequence (P38532 whole entry): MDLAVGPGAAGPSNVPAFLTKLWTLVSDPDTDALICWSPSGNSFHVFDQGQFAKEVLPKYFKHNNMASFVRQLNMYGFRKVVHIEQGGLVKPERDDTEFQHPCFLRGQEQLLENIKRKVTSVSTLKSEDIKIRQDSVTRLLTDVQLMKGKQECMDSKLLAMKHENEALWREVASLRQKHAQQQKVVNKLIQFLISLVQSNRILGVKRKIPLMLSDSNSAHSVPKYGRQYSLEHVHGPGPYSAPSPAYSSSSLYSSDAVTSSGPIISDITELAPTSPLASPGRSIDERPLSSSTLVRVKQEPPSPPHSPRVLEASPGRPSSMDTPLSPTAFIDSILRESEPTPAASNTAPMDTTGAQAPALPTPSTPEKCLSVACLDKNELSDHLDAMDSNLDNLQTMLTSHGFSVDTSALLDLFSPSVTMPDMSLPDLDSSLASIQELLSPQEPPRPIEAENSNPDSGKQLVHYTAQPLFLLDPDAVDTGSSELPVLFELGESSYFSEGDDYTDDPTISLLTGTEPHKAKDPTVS

[2] = loss of viability in HepG2 cells – cell-based, CellTiter-Glo, cherry-picked, cytotoxicity control for Shn3 inhibitor project, dose response (AID 624134); format: functional
[3] = reduction of Shn3 3'UTR-driven luciferase in osteoblasts – cell-based, Clone20 osteoblasts, firefly luciferase, cherry-picked, dose response (AID 624132); format: functional;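 further: firefly luciferase luminescence from reporter carrying the Shn3 3'UTR in osteoblasts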
[4] = non-specific 3'UTR reporter inhibition in Clone20-Shn3RL – cell-based, Renilla luciferase, cherry-picked, counter-screen for Shn3 inhibitor project, dose response (AID 624133); format: functional
Paired box protein Pax-8 = Paired box protein Pax-8 (Homo sapiens, UniProt Q06710); experiment: PAX8 transcriptional activity inhibition in RMG-I – RMG-I cells, luciferase, cherry-pick, dose response (AID 687027); format: functional, cell-based;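 further: luciferase reporter driven by Pax8 target thyroperoxidase promoter measured by SteadyGlo luminescence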
Paired box protein Pax-8, sequence (Q06710 whole entry): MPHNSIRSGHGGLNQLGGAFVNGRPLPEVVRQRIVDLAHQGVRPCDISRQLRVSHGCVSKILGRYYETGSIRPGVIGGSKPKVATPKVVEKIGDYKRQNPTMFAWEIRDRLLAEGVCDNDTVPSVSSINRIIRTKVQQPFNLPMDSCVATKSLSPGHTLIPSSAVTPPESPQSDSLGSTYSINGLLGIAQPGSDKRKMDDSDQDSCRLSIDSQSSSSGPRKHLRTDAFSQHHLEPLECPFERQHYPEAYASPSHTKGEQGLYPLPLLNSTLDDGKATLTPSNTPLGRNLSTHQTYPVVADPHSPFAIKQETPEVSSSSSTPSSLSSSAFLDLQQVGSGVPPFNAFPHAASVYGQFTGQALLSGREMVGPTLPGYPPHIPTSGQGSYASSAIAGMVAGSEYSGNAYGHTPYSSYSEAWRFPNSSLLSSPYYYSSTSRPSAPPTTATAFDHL

[5] = OVCAR8 cell viability loss – plate reader, dry powder samples, PAX8 project, dose response (AID 743197); format: functional, cell-based; conditions: OVCAR-8
[6] = A549 cell cytotoxicity, dose response, cytotoxicity control, plate reader, cherry-pick, antagonist series (AID 743412); format: functional, cell-based
cells [7] = format: functional, cell-based
cells [8] = format: functional, cell-based; remark: listed apart in the source
[9] = intracellular Trypanosoma cruzi inhibitors in host cells – cell-based, plate reader, cherry-pick samples, set 3, dose response (AID 651818); format: functional;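 further: compounds incubated with infected cells for about four days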
[10] = Luminescence Cell-Based Dose Retest to Confirm Inhibitors of Cancer Stem Cells. [Related pubchem assays (depositor defined):AID2717, AID2721]; format: functional; conditions: Homo sapiens
INS1 = experiment: INS-1E survival protection against cytokine death – cell-based, luminescence, retest, dose response (AID 449756); format: functional; conditions: Rattus norvegicus;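 further: cell death triggered by IL-1 beta plus TNF-alpha plus IFN-gamma mixture; protective hits raise ATP signal compared with cytokine alone wells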
[11] = HEK-293T viability loss after treatment – luminescence, T-cell screen hits, cytotoxicity control for TCR NF-kB inhibitor project, dose response (AID 489026); format: functional, cell-based;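 further: cells exposed to compound about 14 hours before the viability readout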

Nc1ccccc1Sc1ccc(C(=O)c2ccccc2C(=O)O)cc1[N+](=O)[O-]
IC50 (Aminopeptidase N): 98.9 µM (active)

CCCCCn1c(N2CCN(c3cccc(Cl)c3)CC2)nc2c1c(=O)[nH]c(=O)n2C
EC50 [1]: > 260 µM (inactive)
AC50 [2]: 59.4 µM (active)
AC50 [3]: 21.8 µM (active)
AC50 [4]: 18.3 µM (active)

C[C@@H]1CCCCO[C@@H](CN(C)Cc2ccc(C(F)(F)F)cc2)[C@@H](C)CN([C@@H](C)CO)C(=O)c2cc(NS(=O)(=O)c3ccccc3)ccc2O1
AC50 (Paired box protein Pax-8): 7.21 µM (active)
AC50 [5]: > 70 µM (inactive)

CC[C@H](CO)Oc1cc(NCc2ccc(Cl)c(Cl)c2)c2ncn(C(C)C)c2c1
AC50 [6]: 30 µM (active)

O=C(CNC(=O)c1ccccc1Br)N/N=C/c1cc(Br)ccc1O
EC50 (cells [7]): 34.7 µM (active)
IC50 (Aminopeptidase N): 26.6 µM (active)
EC50 (cells [8]): > 350 µM (not active)

Cc1noc(C)c1S(=O)(=O)Nc1ccc2c(c1)C(=O)N([C@H](C)CO)C[C@H](C)[C@@H](CN(C)C(=O)Nc1ccc(C(F)(F)F)cc1)OCCCC[C@@H](C)O2
AC50 [9]: 1.19 µM (active)

CC(C)(C)c1cc(C(=O)N/N=C/c2ccccc2O)n(-c2ccccc2)n1
AC50 [10]: 3.05 µM (active)
AC50 (INS1): 3.37 µM (active)
AC50 [2]: 5.66 µM (active)
AC50 [3]: 2.25 µM (active)
AC50 [4]: 2.18 µM (active)

C[C@H]1CN([C@@H](C)CO)C(=O)c2cccc(NC(=O)Nc3ccc(F)cc3)c2O[C@@H]1CN(C)Cc1ccc(C(=O)Nc2ccccc2N)cc1
AC50 [9]: 3.18 µM (active)

COc1ccc(CNC(=O)C2CCN(S(=O)(=O)c3cc(OC)ccc3OC)CC2)cc1
IC50 (Aminopeptidase N): 99 µM (active)

O=C(NN=Cc1c(O)ccc2ccccc12)c1ccc2c(c1)OCO2
IC50 [11]: > 80 µM (inactive)
